± gives the standard deviation of the averaged measurements.
Tests used:
Test in all cases: normalised growth rate inhibition (GR value) relative to DMSO control (GR (1 = untreated growth, 0 = cytostasis, <0 = cytotoxic)); higher = less growth inhibition
Conditions in all cases: 72 h
BT20 = system: BT20
How it was run: (§1)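 Six breast cell lines were seeded in 384-well plates and dosed 24 h later with drugs at 0.04–10 µM for 72 h. Cells were stained with Hoechst 33342 and Fixable Far Red Dead Cell Stain, fixed in 3% formaldehyde and imaged on an Operetta; viable cells were counted in Columbus. Normalised growth rate inhibition was computed from counts relative to same-plate DMSO wells and a day-0 plate. Technical plate replicates (generally three) were averaged.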

MDAMB231 = system: MDAMB231
How it was run: as §1

SKBR3 = system: SKBR3
How it was run: as §1

MCF10A = system: MCF10A
How it was run: as §1

MCF7 = system: MCF7
How it was run: as §1

HS578T = system: HS578T
How it was run: as §1

Structure (SMILES)	normalised growth rate inhibition (BT20; 0.04 µM)	normalised growth rate inhibition (BT20; 0.12 µM)	normalised growth rate inhibition (BT20; 0.37 µM)	normalised growth rate inhibition (BT20; 1.11 µM)	normalised growth rate inhibition (BT20; 3.33 µM)	normalised growth rate inhibition (BT20; 10 µM)	normalised growth rate inhibition (MDAMB231; 0.04 µM)	normalised growth rate inhibition (MDAMB231; 0.12 µM)	normalised growth rate inhibition (MDAMB231; 0.37 µM)	normalised growth rate inhibition (MDAMB231; 1.11 µM)	normalised growth rate inhibition (MDAMB231; 3.33 µM)	normalised growth rate inhibition (MDAMB231; 10 µM)	normalised growth rate inhibition (SKBR3; 0.04 µM)	normalised growth rate inhibition (SKBR3; 0.12 µM)	normalised growth rate inhibition (SKBR3; 0.37 µM)	normalised growth rate inhibition (SKBR3; 1.11 µM)	normalised growth rate inhibition (SKBR3; 3.33 µM)	normalised growth rate inhibition (SKBR3; 10 µM)	normalised growth rate inhibition (MCF10A; 0.04 µM)	normalised growth rate inhibition (MCF10A; 0.12 µM)	normalised growth rate inhibition (MCF10A; 0.37 µM)	normalised growth rate inhibition (MCF10A; 1.11 µM)	normalised growth rate inhibition (MCF10A; 3.33 µM)	normalised growth rate inhibition (MCF10A; 10 µM)	normalised growth rate inhibition (MCF7; 0.04 µM)	normalised growth rate inhibition (MCF7; 0.12 µM)	normalised growth rate inhibition (MCF7; 0.37 µM)	normalised growth rate inhibition (MCF7; 1.11 µM)	normalised growth rate inhibition (MCF7; 3.33 µM)	normalised growth rate inhibition (MCF7; 10 µM)	normalised growth rate inhibition (HS578T; 0.04 µM)	normalised growth rate inhibition (HS578T; 0.12 µM)	normalised growth rate inhibition (HS578T; 0.37 µM)	normalised growth rate inhibition (HS578T; 1.11 µM)	normalised growth rate inhibition (HS578T; 3.33 µM)	normalised growth rate inhibition (HS578T; 10 µM)
Cc1[nH]c(/C=C2\C(=O)Nc3ccc(S(=O)(=O)Cc4c(Cl)cccc4Cl)cc32)c(C)c1C(=O)N1CCC[C@@H]1CN1CCCC1	1.017 ± 0.0089	1.01 ± 0.052	1.003 ± 0.0079	0.976 ± 0.042	0.973 ± 0.035	0.22 ± 0.42	1.03 ± 0.045	1.02 ± 0.069	1.02 ± 0.043	0.997 ± 0.053	0.94 ± 0.023	-0.343 ± 0.3	1.04 ± 0.071	1.06 ± 0.052	1.07 ± 0.087	1.06 ± 0.098	0.956 ± 0.047	0.012 ± 0.5	0.991 ± 0.01	0.9827 ± 0.0045	0.9763 ± 0.0045	0.967 ± 0.012	0.9647 ± 0.0068	0.544 ± 0.43	1.06 ± 0.012	1.06 ± 0.073	1.05 ± 0.051	1.01 ± 0.059	0.923 ± 0.052	0.665 ± 0.17	1 ± 0.028	1.002 ± 0.003	1 ± 0.011	0.96 ± 0.032	0.954 ± 0.018	-0.131 ± 0.58
OCCCNc1cc(-c2ccnc(Nc3cccc(Cl)c3)n2)ccn1	0.32 ± 0.6	-0.203 ± 0.17	-0.291 ± 0.18	-0.323 ± 0.18	-0.37 ± 0.19	-0.43 ± 0.17	0.257 ± 0.49	-0.139 ± 0.17	-0.226 ± 0.15	-0.295 ± 0.15	-0.318 ± 0.15	-0.319 ± 0.13	0.398 ± 0.76	0.11 ± 0.49	-0.227 ± 0.18	-0.278 ± 0.16	-0.344 ± 0.15	-0.414 ± 0.18	0.263 ± 0.55	-0.205 ± 0.21	-0.228 ± 0.22	-0.24 ± 0.21	-0.242 ± 0.21	-0.231 ± 0.16	0.312 ± 0.68	-0.264 ± 0.073	-0.315 ± 0.074	-0.332 ± 0.09	-0.363 ± 0.09	-0.429 ± 0.097	0.343 ± 0.56	-0.0634 ± 0.17	-0.144 ± 0.099	-0.162 ± 0.09	-0.188 ± 0.14	-0.228 ± 0.13
COC(=O)c1ccc2c(C(=Nc3ccc(N(C)C(=O)CN4CCN(C)CC4)cc3)c3ccccc3)c(O)[nH]c2c1 [nintedanib]	1.03 ± 0.056	1.01 ± 0.088	0.857 ± 0.14	0.843 ± 0.089	0.692 ± 0.079	0.508 ± 0.12	1.08 ± 0.029	1.04 ± 0.022	0.9908 ± 0.0092	0.929 ± 0.067	0.842 ± 0.14	0.214 ± 0.56	1.09 ± 0.024	1.02 ± 0.051	0.947 ± 0.028	0.835 ± 0.022	0.645 ± 0.095	0.0487 ± 0.37	1.012 ± 0.0058	0.9933 ± 0.0087	0.9918 ± 0.0074	0.99 ± 0.014	0.918 ± 0.069	0.967 ± 0.029	0.999 ± 0.043	0.892 ± 0.073	0.748 ± 0.12	0.545 ± 0.15	0.326 ± 0.2	0.038 ± 0.22	0.922 ± 0.029	0.872 ± 0.043	0.727 ± 0.053	0.585 ± 0.14	0.386 ± 0.12	0.0955 ± 0.12
O=C(NC1CCNCC1)c1n[nH]cc1NC(=O)c1c(Cl)cccc1Cl [AT-7519]	0.891 ± 0.088	0.695 ± 0.31	0.207 ± 0.43	-0.207 ± 0.12	-0.361 ± 0.21	-0.422 ± 0.18	0.732 ± 0.19	0.291 ± 0.38	-0.171 ± 0.22	-0.291 ± 0.22	-0.355 ± 0.2	-0.388 ± 0.19	0.717 ± 0.24	0.14 ± 0.11	-0.104 ± 0.074	-0.284 ± 0.15	-0.41 ± 0.18	-0.523 ± 0.16	0.969 ± 0.028	0.88 ± 0.071	0.222 ± 0.39	-0.156 ± 0.23	-0.256 ± 0.28	-0.296 ± 0.25	0.69 ± 0.41	0.0423 ± 0.33	-0.267 ± 0.063	-0.302 ± 0.099	-0.33 ± 0.14	-0.404 ± 0.13	0.899 ± 0.1	0.564 ± 0.38	-0.102 ± 0.11	-0.14 ± 0.099	-0.242 ± 0.12	-0.295 ± 0.11

Reference: the supplement of paper PMC5662764
